Our source for the IC50 values is patent publication US11655235B2, “Pyrrolidine and piperidine compounds” (YUHAN CORPORATION, priority 2019, dated 2023).

Each structure is given as a SMILES string.

In general, IC50 refers to the concentration that inhibits the measured activity by half.

What all share (format): biochemical
Test [1] concerns the target T1, recombinant human DPP7 (Homo sapiens, UniProt Q9UHL4).
T1 construct: purchased R&D Systems
Put plainly: DPP7 inhibition, fluorogenic substrate Lys-Pro-AMC. Conditions: recombinant human DPP7. In a few lines: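 Inhibitors are titrated in an 8-point series into the enzyme's assay buffer (DMSO no more than 0.5%). Substrate cleavage at 25 °C is followed by fluorescence, excitation 380 nm and emission 460 nm. IC50 values come from a four-variable logistic model.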

Test [2] has as its target T2, recombinant human DPP9 (Homo sapiens, UniProt Q86TI2).
T2 construct: purchased R&D Systems
Description: DPP9 inhibition, fluorogenic substrate H-Gly-Pro-AMC. The note with it: recombinant human DPP9. The protocol:
(§1) The compounds according to the present technology were evaluated in terms of the inhibitory effect on the activity of dipeptidyl peptidases including FAP by using a substrate producing fluorescent substances upon enzymatic decomposition. The test was conducted at 25° C. to get a final reaction volume of 100 μL in a 96 black well plate. […] Briefly, the test compounds were dissolved in dimethyl sulfoxide (DMSO) at a concentration of 20 mM and then subjected to serial dilution, thereby creating an 8 point curve. As for the control group, a 6 point curve created by serial dilution of Talabostat in the same buffer solution was used. Fluorescence intensity was measured using a microplate reader (Flexstation3, Molecular Devices) under the wavelength condition exciting at 380 nm and reading the emission at 460 nm. The inhibitory effect of the test compounds was measured as a decrease (%) in the signal rate as compared to the control group without any inhibitor. Data was fixed to a logistic model with four variables and IC50 value was calculated using GraphPad Prism program. As for recombinant human DPP4 (R&D Systems), 25 mM tris (pH 8.0) buffer as a buffer solution and H-Gly-Pro-AMC (Bachem) as a substrate were used. As for recombinant human DPP7 (R&D Systems), 25 mM MES (pH 6.0) buffer as a buffer solution and Lys-Pro-AMC (Bachem) as a substrate were used. As for recombinant human DPP8 (PBS Bioscience), as a buffer solution, a 10 mM tris (pH 7.4) buffer comprising 10 mM of magnesium chloride and 0.05% of Tween 20, and Z-Ala-Pro-AMC (BPS Bioscience) as a substrate were used. As for recombinant human DPP9 (R&D Systems), a 25 mM tris (pH 8.0) buffer as a buffer solution and H-Gly-Pro-AMC (Bachem) as a substrate were used. As for recombinant human PREP (R&D System), as a buffer solution, a 25 mM tris (pH 7.5) buffer comprising 250 mM sodium chloride and 2.5 mM DTT (Dithiolthreitol), and Z-Gly-Pro-AMC (Bachem) as a substrate were used. The evaluation was made by using 10 ng of DPP4, PDD7, and PREP, 20 ng of DPP8, and 50 ng of DPP9 based on the final reaction. In the evaluation of DPP4, the test compounds were subjected to serial dilution in a buffer under the condition containing up to 0.1% of DMSO. In the evaluation of DPP7, DPP8, DPP9, and PREP, the test compounds were subjected to serial dilution in each buffer under the condition containing up to 0.5% of DMSO.

In test [3] the target is T3, recombinant human PREP (Homo sapiens, UniProt P48147).
T3 construct: purchased R&D System
T3 sequence (P48147 1-710): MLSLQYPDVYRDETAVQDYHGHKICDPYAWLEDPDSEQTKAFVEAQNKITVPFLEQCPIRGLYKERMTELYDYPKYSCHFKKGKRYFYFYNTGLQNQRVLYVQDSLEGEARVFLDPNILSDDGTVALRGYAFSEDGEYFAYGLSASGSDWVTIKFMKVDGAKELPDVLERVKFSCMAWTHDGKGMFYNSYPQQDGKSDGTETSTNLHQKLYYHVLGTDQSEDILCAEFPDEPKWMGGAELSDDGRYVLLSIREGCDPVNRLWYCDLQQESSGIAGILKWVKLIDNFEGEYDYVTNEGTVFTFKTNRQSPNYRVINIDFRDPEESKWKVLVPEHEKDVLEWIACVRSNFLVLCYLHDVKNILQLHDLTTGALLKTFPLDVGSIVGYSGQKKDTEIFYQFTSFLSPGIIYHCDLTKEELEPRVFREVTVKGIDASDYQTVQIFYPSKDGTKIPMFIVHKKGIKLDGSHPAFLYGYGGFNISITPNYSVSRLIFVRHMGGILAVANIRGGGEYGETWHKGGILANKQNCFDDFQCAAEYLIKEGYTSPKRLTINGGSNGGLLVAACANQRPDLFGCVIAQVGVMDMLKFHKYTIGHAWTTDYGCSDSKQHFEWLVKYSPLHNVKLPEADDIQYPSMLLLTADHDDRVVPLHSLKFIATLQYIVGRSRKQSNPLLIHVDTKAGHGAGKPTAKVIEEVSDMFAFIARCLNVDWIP
Description: PREP inhibition, fluorogenic substrate Z-Gly-Pro-AMC. The note with it: Inhibitory Activity (IC50, nM) PREP, recombinant human PREP. The protocol: as §1

In test [4] the target is T4, Recombinant human FAP (Homo sapiens, UniProt Q12884).
T4 construct: purchased R&D systems
T4 sequence (Q12884 1-760): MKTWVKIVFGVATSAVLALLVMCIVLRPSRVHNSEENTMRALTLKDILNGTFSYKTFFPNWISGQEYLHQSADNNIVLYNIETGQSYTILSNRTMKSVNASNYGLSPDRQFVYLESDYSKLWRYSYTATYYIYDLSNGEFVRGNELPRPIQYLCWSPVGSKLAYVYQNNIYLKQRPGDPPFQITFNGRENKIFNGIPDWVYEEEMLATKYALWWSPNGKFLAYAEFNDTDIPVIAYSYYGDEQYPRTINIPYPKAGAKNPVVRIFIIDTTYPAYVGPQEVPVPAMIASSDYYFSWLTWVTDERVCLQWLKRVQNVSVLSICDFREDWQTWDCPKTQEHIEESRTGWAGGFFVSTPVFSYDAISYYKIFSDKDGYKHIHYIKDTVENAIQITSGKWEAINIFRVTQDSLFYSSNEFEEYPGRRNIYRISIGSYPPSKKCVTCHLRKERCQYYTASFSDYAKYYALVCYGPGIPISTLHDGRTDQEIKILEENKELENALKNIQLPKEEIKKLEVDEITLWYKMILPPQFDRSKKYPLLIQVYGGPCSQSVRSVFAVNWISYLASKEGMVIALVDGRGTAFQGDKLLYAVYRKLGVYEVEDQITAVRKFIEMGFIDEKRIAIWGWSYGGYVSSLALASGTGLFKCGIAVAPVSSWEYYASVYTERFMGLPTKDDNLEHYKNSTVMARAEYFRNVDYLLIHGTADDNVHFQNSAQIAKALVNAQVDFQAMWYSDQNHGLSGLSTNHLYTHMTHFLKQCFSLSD
Put plainly: FAP FRET assay, FGF21-sequence FRET peptide substrate. Conditions: FRET peptide with human FGF21 sequence, 6 μM, 37° C. In a few lines:
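FRET peptide bearing human FGF21 sequence (6 μM final) cleaved by 10 ng recombinant human FAP at 37° C in HEPES pH 7.2 buffer with NaCl, BSA and EDTA, DMSO up to 0.1%. Signal-rate decrease versus uninhibited control fitted to a four-variable logistic model for IC50.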

In test [5] the target is DPP4 (Homo sapiens, UniProt P27487). Description: DPP4 inhibition, fluorogenic substrate H-Gly-Pro-AMC. Conditions: recombinant human DPP4. Also noted: purchased R&D Systems.
Chain of DPP4 (P27487 whole entry): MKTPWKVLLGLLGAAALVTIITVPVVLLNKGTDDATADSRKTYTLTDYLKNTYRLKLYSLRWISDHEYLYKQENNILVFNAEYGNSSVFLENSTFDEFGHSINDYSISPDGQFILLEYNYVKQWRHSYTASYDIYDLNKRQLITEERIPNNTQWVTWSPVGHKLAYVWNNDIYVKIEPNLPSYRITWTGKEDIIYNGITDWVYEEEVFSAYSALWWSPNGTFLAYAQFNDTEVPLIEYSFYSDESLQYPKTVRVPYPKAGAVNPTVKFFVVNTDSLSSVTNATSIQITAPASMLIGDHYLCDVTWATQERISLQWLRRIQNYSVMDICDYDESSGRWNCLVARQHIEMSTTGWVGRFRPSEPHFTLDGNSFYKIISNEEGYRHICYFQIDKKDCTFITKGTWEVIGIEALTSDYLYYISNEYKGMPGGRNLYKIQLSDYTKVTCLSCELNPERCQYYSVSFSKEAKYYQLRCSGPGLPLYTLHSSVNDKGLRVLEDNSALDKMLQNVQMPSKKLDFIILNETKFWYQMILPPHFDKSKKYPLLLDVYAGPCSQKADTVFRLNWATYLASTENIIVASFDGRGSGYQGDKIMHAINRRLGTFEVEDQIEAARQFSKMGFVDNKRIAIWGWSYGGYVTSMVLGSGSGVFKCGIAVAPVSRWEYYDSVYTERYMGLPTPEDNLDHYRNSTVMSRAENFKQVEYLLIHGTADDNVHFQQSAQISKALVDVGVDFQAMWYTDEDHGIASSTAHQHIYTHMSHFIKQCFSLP

T2 sequence (Q86TI2 whole entry): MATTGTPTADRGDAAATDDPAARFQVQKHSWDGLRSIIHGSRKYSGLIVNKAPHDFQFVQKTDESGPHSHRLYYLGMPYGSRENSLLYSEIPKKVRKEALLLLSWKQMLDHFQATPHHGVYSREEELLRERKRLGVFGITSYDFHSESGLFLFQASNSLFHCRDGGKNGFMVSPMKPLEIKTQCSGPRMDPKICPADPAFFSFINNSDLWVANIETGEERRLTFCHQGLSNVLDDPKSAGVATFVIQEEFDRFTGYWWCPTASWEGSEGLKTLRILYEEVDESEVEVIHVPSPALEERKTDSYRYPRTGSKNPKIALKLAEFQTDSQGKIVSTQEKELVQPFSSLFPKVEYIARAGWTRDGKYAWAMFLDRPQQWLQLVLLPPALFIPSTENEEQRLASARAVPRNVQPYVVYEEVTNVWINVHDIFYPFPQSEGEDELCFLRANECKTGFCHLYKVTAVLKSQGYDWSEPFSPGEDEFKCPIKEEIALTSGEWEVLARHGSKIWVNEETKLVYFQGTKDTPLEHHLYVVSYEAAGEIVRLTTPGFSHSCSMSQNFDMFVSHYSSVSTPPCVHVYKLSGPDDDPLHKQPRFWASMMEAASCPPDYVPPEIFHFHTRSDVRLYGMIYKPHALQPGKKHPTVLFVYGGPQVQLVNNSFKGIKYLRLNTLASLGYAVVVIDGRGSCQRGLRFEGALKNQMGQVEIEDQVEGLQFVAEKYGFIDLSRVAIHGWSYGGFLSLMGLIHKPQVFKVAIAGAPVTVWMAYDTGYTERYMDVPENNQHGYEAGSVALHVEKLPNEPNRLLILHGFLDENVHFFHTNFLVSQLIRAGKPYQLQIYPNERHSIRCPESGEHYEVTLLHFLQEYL

For `N#C[C@@H]1C[C@H](F)CN1C(=O)CN1CC[C@@H](Nc2cc(C(F)(F)F)cc3ncccc23)C1` [Example 182, (2S,4S)-4-fluoro-1-[2-[(3R)-3-[[7-(trifluoromethyl)-5-quinolyl]amino]pyrrolidin-1-yl]acetyl]pyrrolidine-2-carbonitrile], the IC50 stood at 819 nM in test [1]; 6690 nM in test [2]; 5360 nM in test [3]; 3.3 nM in test [4]; 4070 nM in test [5].
Regarding `COc1ccc(N[C@@H]2CCN(CC(=O)N3C[C@@H](F)C[C@H]3C#N)C2)c2cccnc12` [Example 178, (2S,4S)-4-fluoro-1-[2-[(3R)-3-[(8-methoxy-5-quinolyl)amino]pyrrolidin-1-yl]acetyl]pyrrolidine-2-carbonitrile], the IC50 in test [1] turned out to be 5960 nM; in test [2], 2570 nM; in test [3] it was 2350 nM; in test [4], 10.1 nM; in test [5], 1360 nM.
On the same counts, the results for `Cc1cc(N[C@@H]2CCN(CC(=O)N3C[C@@H](F)C[C@H]3C#N)C2)cc2cccnc12` [Example 213, (2S,4S)-4-fluoro-1-[2-[(3R)-3-[(8-methyl-6-quinolyl)amino]pyrrolidin-1-yl]acetyl]pyrrolidine-2-carbonitrile] are 393 nM, 1390 nM, 3020 nM, 3.5 nM and 1740 nM.
Regarding `COc1cnc2cccc(N[C@@H]3CCN(CC(=O)N4CCC[C@H]4C#N)C3)c2c1` [Example 204, (2S)-1-[2-[(3R)-3-[(3-methoxy-5-quinolyl)amino]pyrrolidin-1-yl]acetyl]pyrrolidine-2-carbonitrile], the IC50 in test [1] was determined as 3870 nM; in test [2] it was 16200 nM; in test [3], 11500 nM; in test [4], 2.1 nM; in test [5] it was 6200 nM.
On the same counts, the results for `N#C[C@@H]1CCCN1C(=O)CN1CCC(Nc2ccc(C(=O)Nc3ccccc3)c3ncccc23)CC1` [Example 396, 5-[[1-[2-oxo-2-[(2S)-2-cyanopyrrolidin-1-yl]ethyl]-4-piperidyl]amino]-N-phenyl-quinoline-8-carboxamide] are 875 nM, 7420 nM, 1770 nM, 3.1 nM and 16400 nM.
Turning to `CC(=O)Nc1ccc(N[C@H]2CCN(CC(=O)N3C[C@@H](F)C[C@H]3C#N)C2)c2cccnc12` [Example 297, N-[5-[[(3S)-1-[2-oxo-2-[(2S,4S)-2-cyano-4-fluoro-pyrrolidin-1-yl]ethyl]pyrrolidin-3-yl]amino]-8-quinolyl]acetamide], the IC50 came to 13.5 nM in test [1]; 4200 nM in test [2]; 4750 nM in test [3]; 2.9 nM in test [4]; 2810 nM in test [5].
On the same counts, the results for `N#C[C@@H]1CCCN1C(=O)CN1CC[C@@H](Nc2cccc3ncc(Cl)cc23)C1` [Example 203, (2S)-1-[2-[(3R)-3-[(3-chloro-5-quinolyl)amino]pyrrolidin-1-yl]acetyl]pyrrolidine-2-carbonitrile] are 3260 nM, 11200 nM, 12200 nM, 0.9 nM and 4660 nM.
For `COc1ccnc2ccc(N[C@@H]3CCN(CC(=O)N4C[C@@H](F)C[C@H]4C#N)C3)cc12` [Example 212, (2S,4S)-4-fluoro-1-[2-[(3R)-3-[(4-methoxy-6-quinolyl)amino]pyrrolidin-1-yl]acetyl]pyrrolidine-2-carbonitrile], the IC50 was determined as 206 nM in test [1]; 1160 nM in test [2]; 5230 nM in test [3]; 8 nM in test [4]; 1960 nM in test [5].
On the same counts, the results for `N#C[C@@H]1C[C@H](F)CN1C(=O)CN1CCC(Nc2cc(Cl)c3ncccc3c2)CC1` [Example 376, (2S,4S)-1-[2-[4-[(8-chloro-6-quinolyl)amino]-1-piperidyl]acetyl]-4-fluoro-pyrrolidine-2-carbonitrile] are 226 nM, 4370 nM, 870 nM, 7 nM and 3510 nM.
As for `N#C[C@@H]1C[C@H](F)CN1C(=O)CN1CC[C@H](Nc2cc(F)c3ncccc3c2)C1` [Example 278, (2S,4S)-4-fluoro-1-[2-[(3S)-3-[(8-fluoro-6-quinolyl)amino]pyrrolidin-1-yl]acetyl]pyrrolidine-2-carbonitrile], the IC50 came to 615 nM in test [1]; 593 nM in test [2]; 1280 nM in test [3]; 3.5 nM in test [4]; 610 nM in test [5].
For the molecule `N#C[C@@H]1C[C@H](F)CN1C(=O)CN1CCC(Nc2cccc3ncsc23)CC1` [Example 372, (2S,4S)-1-[2-[4-(1,3-benzothiazol-7-ylamino)-1-piperidyl]acetyl]-4-fluoro-pyrrolidine-2-carbonitrile], the IC50 amounted to 645 nM in test [1]; 945 nM in test [2]; 2000 nM in test [3]; 51.6 nM in test [4]; 1650 nM in test [5].
